Measurements from publication PMC7862291, “Full-length in meso structure and mechanism of rat kynurenine 3-monooxygenase inhibition” (Communications Biology, 2021).
Values joined by “and” are separate entries in the source; they are usually repeats but may differ in a detail not shown here. Equal values may be shown once.

Assays:
[1] = target: T1, HEK293 cells stably expressing human KMO (Homo sapiens, UniProt O15229); test: Cell-based human KMO inhibition assay (LC/MS of 3-hydroxykynurenine)
T1 construct: expressed in transfected cells
Experimental: (§1) HEK293 cells stably expressing human or rat KMO were maintained in DMEM containing 10% fetal bovine serum, 50 units/mL penicillin, 50 μg/mL streptomycin and 0.2 mg⁄mL zeocine. […] After 2 overnights, the medium was replaced with 10 μL/well of assay buffer (1 × HBSS containing 20 mM HEPES). Ten microliters per well of the diluted test compounds (final, 0–30 μM, 0.3% DMSO) were added to the respective wells. After ~30 min of pre-incubation at 37 °C, reactions were started by adding 20 μL of substrate solution containing 0.2 mM kynurenine. Reactions were run for 2 h at 37 °C, the assay buffer was discarded and the plate was immediately frozen and stored at −30 °C until LC/MS analysis.
(§2) An 80 µL volume of cold acetonitrile with 2% formic acid was added to the cell pellet in a 384-well plate and centrifuged at 3000 rpm for 10 min at 4 °C. A 40 µL volume of the supernatant was transferred to a new 384-well plate and evaporated to dryness under nitrogen gas at 45 °C. The residue was reconstituted in 100 µL of acetonitrile/water (10:90, v/v) with 0.1% formic acid, and 1 µL was injected into the LC-MS/MS system.
(§3) LC/MS/MS was performed on a Shimadzu UFLC Nexera X2 (Shimadzu Corporation, Japan) and an QTRAP® 5500 LC-MS/MS System (SCIEX, Framingham, USA). Chromatographic separation was performed using an Allure PFP Propyl analytical column (5 µm, 2.1 × 100 mm) maintained at 50 °C. The autosampler temperature was set at 15 °C. The mobile phase consisted of formic acid/water/acetonitrile/methanol (0.5/500/250/250, v/v/v/v) and the flow rate was set at 0.3 mL/min. 3-hydroxykynurenine was eluted from the LC column at a retention time of 1.2 min. The MS system was operated using electrospray ionization (ESI) in positive mode. The optimum conditions were curtain gas, 20 psi; ion spray voltage, 5500 V; heated nebulizer temperature (TEM), 700 °C; nebulizing gas (GS1), 70 psi; and heater gas (GS2), 70 psi. […] Analyst® software (SCIEX, Framingham, USA) was used for system control and MultiQuant™ Software (SCIEX, Framingham, USA) was used for data analysis.
(§4) Compound assays were analysed and plotted on graphs using Prism (GraphPad Software Inc. San Diego, CA, USA).

[2] = target: T2, HEK293 cells stably expressing rat KMO (Rattus norvegicus, UniProt O88867); test: Cell-based rat KMO inhibition assay (LC/MS of 3-hydroxykynurenine)
T2 construct: expressed in transfected cells
Experimental: as §1, §2, §3, §4

Rat KMO = target: T3, Rat KMO (Rattus norvegicus, UniProt O88867); test: Rat KMO enzyme (cell-free) assay, NADPH consumption by absorbance; format: biochemical
T3 construct: The GST-tagged full-length KMO (1-478) baculovirus vector contained a thrombin cleavage site; GST (thrombin cleavage site between GST and KMO) (N, cleaved yes); made in house; host or cells: Spodoptera frugiperda (Sf9), baculovirus
Experimental: (§5) Human KMO was purchased from Origene and used to assay compounds. Full-length Rat-KMO purified for crystallisation was used to assay compounds. Full-length Rat-KMO-expressing membranes were used for mutant assays (Fig. 4b) only. […] Images were taken using Odyssey CLX (LI-COR Biosciences) and quantified using ImageStudio2.0 (LI-COR Biosciences) software.
(§6) Test compounds were dissolved in DMSO and diluted with assay buffer containing 50 mM HEPES, 2 mM MgCl2, 0.5 mM EGTA, 1 mM DTT, 0.05% Tween20 and 0.005% of antiform SI (pH = about 7.9) to prepare a 4% DMSO solution. […] After 5 min of pre-incubation, reactions were started by adding 10 μL of substrate solution containing 2.4 mM kynurenine and 0.6 mM NADPH. Reactions were run for 90 min at 30 °C, then terminated by adding 5 μL of stop buffer (40 mM maleimide, 2 mM WST-9 and 0.1 mM 1-methoky PMS in water). […] Liposomal assays were performed in the same manner except that the composition of the assay buffer was changed (phosphate-buffered saline, 2 mM MgCl2, 1 mM DTT, 0.05% Tween 20).
as §4

hKMO = target: T4, hKMO (Homo sapiens, UniProt O15229); test: Human KMO enzyme (cell-free) assay, NADPH consumption by absorbance; format: biochemical
T4 construct: purchased Origene
Experimental: as §5, §6, §4

T4 sequence (O15229 whole entry): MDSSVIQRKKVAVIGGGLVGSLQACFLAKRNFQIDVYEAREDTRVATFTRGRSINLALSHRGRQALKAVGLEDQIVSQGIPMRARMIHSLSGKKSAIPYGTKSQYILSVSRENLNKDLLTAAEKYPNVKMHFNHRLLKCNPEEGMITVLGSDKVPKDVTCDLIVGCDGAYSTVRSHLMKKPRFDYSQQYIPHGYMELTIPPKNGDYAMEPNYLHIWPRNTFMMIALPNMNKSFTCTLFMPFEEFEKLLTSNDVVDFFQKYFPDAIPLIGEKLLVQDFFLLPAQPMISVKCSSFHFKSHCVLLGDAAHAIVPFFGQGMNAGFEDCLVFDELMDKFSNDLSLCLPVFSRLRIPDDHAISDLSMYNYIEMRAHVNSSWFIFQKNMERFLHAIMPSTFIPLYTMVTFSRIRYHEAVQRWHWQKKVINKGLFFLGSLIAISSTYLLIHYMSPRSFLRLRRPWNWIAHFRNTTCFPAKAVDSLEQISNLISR
T1 sequence (O15229 whole entry): as above
T2 sequence (O88867 whole entry): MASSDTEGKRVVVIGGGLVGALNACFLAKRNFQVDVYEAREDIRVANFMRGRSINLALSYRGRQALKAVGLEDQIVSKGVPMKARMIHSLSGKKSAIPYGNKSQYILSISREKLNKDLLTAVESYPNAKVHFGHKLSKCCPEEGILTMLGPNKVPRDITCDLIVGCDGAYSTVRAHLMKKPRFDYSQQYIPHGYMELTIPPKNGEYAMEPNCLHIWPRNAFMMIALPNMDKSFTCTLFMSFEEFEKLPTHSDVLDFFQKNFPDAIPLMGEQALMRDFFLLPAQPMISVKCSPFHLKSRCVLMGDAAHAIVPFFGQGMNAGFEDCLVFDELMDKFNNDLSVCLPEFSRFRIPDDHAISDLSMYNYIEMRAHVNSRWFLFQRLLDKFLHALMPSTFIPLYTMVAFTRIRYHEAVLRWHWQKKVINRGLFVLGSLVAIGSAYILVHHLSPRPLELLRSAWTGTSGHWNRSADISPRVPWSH
T3 sequence (O88867 whole entry): as above

Cc1cnn(-c2cccc(C(=O)O)c2)c1-c1ccccc1 [Compound 1]
inhibition at 0.1 µM ([1]; HEK293, conc 0.1 μM, duplicates, read-out: inhibition rate, Hs-KMO cellular assay (Figure 1C source data)): 17% | inhibition at 0.3 µM ([1]; HEK293, conc 0.3 μM, duplicates, read-out: inhibition rate, Hs-KMO cellular assay (Figure 1C source data)): 33.6% | inhibition at 1 µM ([1]; HEK293, conc 1 μM, duplicates, read-out: inhibition rate, Hs-KMO cellular assay (Figure 1C source data)): 60.2% | inhibition at 3 µM ([1]; HEK293, conc 3 μM, duplicates, read-out: inhibition rate, Hs-KMO cellular assay (Figure 1C source data)): 88.1% | inhibition at 10 µM ([1]; HEK293, conc 10 μM, duplicates, read-out: inhibition rate, Hs-KMO cellular assay (Figure 1C source data)): 100% | inhibition at 30 µM ([1]; HEK293, conc 30 μM, duplicates, read-out: inhibition rate, Hs-KMO cellular assay (Figure 1C source data)): 104% | IC50 ([1]; HEK293 cells expressing human KMO, LC/MS, read-out: Human cell-based assay IC50): 580 nM | inhibition rate, Hs-KMO cellular assay (Figure 1C source data) ([1]; conc 0.03 μM, duplicates): 1.868% and 10.412% | inhibition rate, Hs-KMO cellular assay (Figure 1C source data) ([1]; conc 0.1 μM, duplicates): 14.953% | inhibition rate, Hs-KMO cellular assay (Figure 1C source data) ([1]; conc 0.3 μM, duplicates): 36.860% | inhibition rate, Hs-KMO cellular assay (Figure 1C source data) ([1]; conc 1 μM, duplicates): 55.900% | inhibition rate, Hs-KMO cellular assay (Figure 1C source data) ([1]; conc 3 μM, duplicates): 85.656% | inhibition rate, Hs-KMO cellular assay (Figure 1C source data) ([1]; conc 10 μM, duplicates): 99.963% | inhibition rate, Hs-KMO cellular assay (Figure 1C source data) ([1]; conc 30 μM, duplicates): 103.556% | inhibition at 0.03 µM ([2]; HEK293, conc 0.03 μM, duplicates, read-out: inhibition rate, Rat-KMO cellular assay (Figure 1D source data)): 4.96% | inhibition at 0.1 µM ([2]; HEK293, conc 0.1 μM, duplicates, read-out: inhibition rate, Rat-KMO cellular assay (Figure 1D source data)): 0.969% | inhibition at 0.3 µM ([2]; HEK293, conc 0.3 μM, duplicates, read-out: inhibition rate, Rat-KMO cellular assay (Figure 1D source data)): 4.27% | inhibition at 3 µM ([2]; HEK293, conc 3 μM, duplicates, read-out: inhibition rate, Rat-KMO cellular assay (Figure 1D source data)): 20.1% | inhibition at 10 µM ([2]; HEK293, conc 10 μM, duplicates, read-out: inhibition rate, Rat-KMO cellular assay (Figure 1D source data)): 58.4% | inhibition at 30 µM ([2]; HEK293, conc 30 μM, duplicates, read-out: inhibition rate, Rat-KMO cellular assay (Figure 1D source data)): 87.7% | IC50 ([2]; HEK293 cells expressing rat KMO, LC/MS): 7300 nM | inhibition rate, Rat-KMO cellular assay (Figure 1D source data) ([2]; conc 0.03 μM, duplicates): 3.155% | inhibition rate, Rat-KMO cellular assay (Figure 1D source data) ([2]; conc 0.1 μM, duplicates): 1.853% | inhibition rate, Rat-KMO cellular assay (Figure 1D source data) ([2]; conc 0.3 μM, duplicates): 6.904% | inhibition rate, Rat-KMO cellular assay (Figure 1D source data) ([2]; conc 3 μM, duplicates): 21.339% | inhibition rate, Rat-KMO cellular assay (Figure 1D source data) ([2]; conc 10 μM, duplicates): 59.197% | inhibition rate, Rat-KMO cellular assay (Figure 1D source data) ([2]; conc 30 μM, duplicates): 87.499% | IC50 (Rat KMO; cell-free enzyme assay, high kynurenine): 570 nM | inhibition rate, Rat-KMO cell-free assay (Figure 1B source data) (Rat KMO; conc 0.03 μM, duplicates): 4.679% and 12.234% | inhibition rate, Rat-KMO cell-free assay (Figure 1B source data) (Rat KMO; conc 0.1 μM, duplicates): 19.657% | inhibition at 0.1 µM (Rat KMO; conc 0.1 μM, duplicates, read-out: inhibition rate, Rat-KMO cell-free assay (Figure 1B source data)): 16% | inhibition rate, Rat-KMO cell-free assay (Figure 1B source data) (Rat KMO; conc 0.3 μM, duplicates): 35.882% | inhibition at 0.3 µM (Rat KMO; conc 0.3 μM, duplicates, read-out: inhibition rate, Rat-KMO cell-free assay (Figure 1B source data)): 39.2% | inhibition rate, Rat-KMO cell-free assay (Figure 1B source data) (Rat KMO; conc 1 μM, duplicates): 64.963% | inhibition at 1 µM (Rat KMO; conc 1 μM, duplicates, read-out: inhibition rate, Rat-KMO cell-free assay (Figure 1B source data)): 63.5% | inhibition rate, Rat-KMO cell-free assay (Figure 1B source data) (Rat KMO; conc 3 μM, duplicates): 78.325% | inhibition at 3 µM (Rat KMO; conc 3 μM, duplicates, read-out: inhibition rate, Rat-KMO cell-free assay (Figure 1B source data)): 81.5% | inhibition rate, Rat-KMO cell-free assay (Figure 1B source data) (Rat KMO; conc 10 μM, duplicates): 86.225% | inhibition at 10 µM (Rat KMO; conc 10 μM, duplicates, read-out: inhibition rate, Rat-KMO cell-free assay (Figure 1B source data)): 85.2% | inhibition rate, Rat-KMO cell-free assay (Figure 1B source data) (Rat KMO; conc 30 μM, duplicates): 94.681% | inhibition at 30 µM (Rat KMO; conc 30 μM, duplicates, read-out: inhibition rate, Rat-KMO cell-free assay (Figure 1B source data)): 95.7% | inhibition rate, Rat-KMO cell-free assay (Figure 1B source data) (Rat KMO; conc 100 μM, duplicates): 91.129% | inhibition at 100 µM (Rat KMO; conc 100 μM, duplicates, read-out: inhibition rate, Rat-KMO cell-free assay (Figure 1B source data)): 88.8% | IC50 (hKMO; cell-free enzyme assay, high kynurenine, read-out: Human KMO IC50): 160 nM | inhibition rate, Hs-KMO cell-free assay (Figure 1A source data) (hKMO; conc 0.03 μM, duplicates): 13.527% | inhibition at 0.03 µM (hKMO; conc 0.03 μM, duplicates, read-out: inhibition rate, Hs-KMO cell-free assay (Figure 1A source data)): 15.1% | inhibition rate, Hs-KMO cell-free assay (Figure 1A source data) (hKMO; conc 0.1 μM, duplicates): 37.639% | inhibition at 0.1 µM (hKMO; conc 0.1 μM, duplicates, read-out: inhibition rate, Hs-KMO cell-free assay (Figure 1A source data)): 41.4% | inhibition rate, Hs-KMO cell-free assay (Figure 1A source data) (hKMO; conc 0.3 μM, duplicates): 65.813% | inhibition at 0.3 µM (hKMO; conc 0.3 μM, duplicates, read-out: inhibition rate, Hs-KMO cell-free assay (Figure 1A source data)): 66.6% | inhibition rate, Hs-KMO cell-free assay (Figure 1A source data) (hKMO; conc 1 μM, duplicates): 77.715% | inhibition at 1 µM (hKMO; conc 1 μM, duplicates, read-out: inhibition rate, Hs-KMO cell-free assay (Figure 1A source data)): 82.9% | inhibition rate, Hs-KMO cell-free assay (Figure 1A source data) (hKMO; conc 3 μM, duplicates): 95.862% | inhibition at 3 µM (hKMO; conc 3 μM, duplicates, read-out: inhibition rate, Hs-KMO cell-free assay (Figure 1A source data)): 99.1% | inhibition rate, Hs-KMO cell-free assay (Figure 1A source data) (hKMO; conc 10 μM, duplicates): 92.894% | inhibition at 10 µM (hKMO; conc 10 μM, duplicates, read-out: inhibition rate, Hs-KMO cell-free assay (Figure 1A source data)): 97.2% | inhibition rate, Hs-KMO cell-free assay (Figure 1A source data) (hKMO; conc 30 μM, duplicates): 103.928% | inhibition at 30 µM (hKMO; conc 30 μM, duplicates, read-out: inhibition rate, Hs-KMO cell-free assay (Figure 1A source data)): 104% | inhibition rate, Hs-KMO cell-free assay (Figure 1A source data) (hKMO; conc 100 μM, duplicates): 96.422% | inhibition at 100 µM (hKMO; conc 100 μM, duplicates, read-out: inhibition rate, Hs-KMO cell-free assay (Figure 1A source data)): 100%
